Values quoted from earlier work, collected in patent publication US20120211706A1, “POLYDENTATE LIGAND METAL COMPLEX” (SUMITOMO CHEMICAL COMPANY, LIMITED, priority 2009, published 2012).
Counter-ions that a name gives are not always drawn.

Conditions: 1N aqueous sulfuric acid solution

C=C[C@H]1C[N@@]2CC[C@H]1C[C@H]2[C@H](O)c1ccnc2ccc(OC)cc12 [quinine sulfate]
emission quantum yield of standard sample: 55%
